The source of these data is article PMC9600068, “New Approach Methods for Hazard Identification: A Case Study with Azole Fungicides Affecting Molecular Targets Associated with the Adverse Outcome Pathway for Cholestasis” (Cells, 2022).

For this test, the target named is T1, bile salt export pump (BSEP) (Homo sapiens, UniProt O95342).
T1 construct: gene ABCB11
Briefly: inhibition of taurocholate transport in membrane preparations from HEK293 cells overexpressing human BSEP. It counts as biochemical.

T1 sequence (O95342 whole entry): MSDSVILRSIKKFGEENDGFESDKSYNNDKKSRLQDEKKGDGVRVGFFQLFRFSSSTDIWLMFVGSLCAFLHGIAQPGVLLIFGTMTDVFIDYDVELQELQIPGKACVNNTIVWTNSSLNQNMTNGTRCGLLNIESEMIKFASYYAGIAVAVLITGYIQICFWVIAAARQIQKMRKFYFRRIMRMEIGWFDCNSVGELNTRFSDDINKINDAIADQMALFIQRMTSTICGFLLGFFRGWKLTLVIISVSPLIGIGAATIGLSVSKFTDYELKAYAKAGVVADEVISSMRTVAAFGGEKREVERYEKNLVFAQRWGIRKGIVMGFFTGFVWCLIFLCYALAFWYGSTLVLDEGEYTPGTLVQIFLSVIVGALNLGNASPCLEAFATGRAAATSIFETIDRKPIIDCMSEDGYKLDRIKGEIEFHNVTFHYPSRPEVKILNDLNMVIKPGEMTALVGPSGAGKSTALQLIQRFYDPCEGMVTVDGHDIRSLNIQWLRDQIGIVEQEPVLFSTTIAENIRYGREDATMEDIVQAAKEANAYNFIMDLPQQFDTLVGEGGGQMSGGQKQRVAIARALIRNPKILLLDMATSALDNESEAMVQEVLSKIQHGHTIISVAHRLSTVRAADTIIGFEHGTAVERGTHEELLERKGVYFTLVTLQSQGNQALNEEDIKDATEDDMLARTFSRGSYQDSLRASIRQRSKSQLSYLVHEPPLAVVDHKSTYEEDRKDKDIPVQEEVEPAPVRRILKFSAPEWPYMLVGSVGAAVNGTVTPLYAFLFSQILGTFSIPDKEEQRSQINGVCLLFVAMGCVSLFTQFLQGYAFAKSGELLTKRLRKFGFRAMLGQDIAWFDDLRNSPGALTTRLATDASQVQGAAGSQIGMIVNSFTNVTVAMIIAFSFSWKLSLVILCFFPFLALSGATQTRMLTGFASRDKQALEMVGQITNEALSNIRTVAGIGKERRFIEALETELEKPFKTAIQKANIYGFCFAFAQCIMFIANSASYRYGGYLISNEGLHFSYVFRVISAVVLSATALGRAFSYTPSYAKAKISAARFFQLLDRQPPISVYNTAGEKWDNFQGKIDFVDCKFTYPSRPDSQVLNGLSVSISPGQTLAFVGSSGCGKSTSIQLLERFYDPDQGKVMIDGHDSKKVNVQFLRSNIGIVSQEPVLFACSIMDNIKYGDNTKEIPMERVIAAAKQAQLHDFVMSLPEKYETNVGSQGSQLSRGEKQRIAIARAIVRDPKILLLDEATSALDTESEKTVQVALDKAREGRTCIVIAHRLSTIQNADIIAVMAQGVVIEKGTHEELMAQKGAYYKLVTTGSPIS

In general, IC50 refers to the point on the concentration scale where inhibition reaches its midpoint. Turning to `CCCC1COC(Cn2cncn2)(c2ccc(Cl)cc2Cl)O1` (centres unmarked) [Pi, propiconazole], the IC50 was 78.6 µM. On to `CC(C)(C)C(O)(CCc1ccc(Cl)cc1)Cn1cncn1` (centres unmarked) [Te, tebuconazole], for which the IC50 was found to be 38 µM.
